Biological target: T1, human iNOS (Homo sapiens, UniProt P35228)
T1 construct: expressed in transfected cells; host or cells: HEK293
Experiment: DAN assay of nitric oxide production (hiNOS)
Type: cell-based
Details: enzyme expressed in HEK293 cells transiently transfected with human iNOS
Procedure, shortened: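 Human iNOS transiently expressed in HEK293 cells; NO production quantified as nitrite via 2,3-diaminonaphthalene reaction forming fluorescent naphthotriazole.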

T1 sequence (P35228 whole entry): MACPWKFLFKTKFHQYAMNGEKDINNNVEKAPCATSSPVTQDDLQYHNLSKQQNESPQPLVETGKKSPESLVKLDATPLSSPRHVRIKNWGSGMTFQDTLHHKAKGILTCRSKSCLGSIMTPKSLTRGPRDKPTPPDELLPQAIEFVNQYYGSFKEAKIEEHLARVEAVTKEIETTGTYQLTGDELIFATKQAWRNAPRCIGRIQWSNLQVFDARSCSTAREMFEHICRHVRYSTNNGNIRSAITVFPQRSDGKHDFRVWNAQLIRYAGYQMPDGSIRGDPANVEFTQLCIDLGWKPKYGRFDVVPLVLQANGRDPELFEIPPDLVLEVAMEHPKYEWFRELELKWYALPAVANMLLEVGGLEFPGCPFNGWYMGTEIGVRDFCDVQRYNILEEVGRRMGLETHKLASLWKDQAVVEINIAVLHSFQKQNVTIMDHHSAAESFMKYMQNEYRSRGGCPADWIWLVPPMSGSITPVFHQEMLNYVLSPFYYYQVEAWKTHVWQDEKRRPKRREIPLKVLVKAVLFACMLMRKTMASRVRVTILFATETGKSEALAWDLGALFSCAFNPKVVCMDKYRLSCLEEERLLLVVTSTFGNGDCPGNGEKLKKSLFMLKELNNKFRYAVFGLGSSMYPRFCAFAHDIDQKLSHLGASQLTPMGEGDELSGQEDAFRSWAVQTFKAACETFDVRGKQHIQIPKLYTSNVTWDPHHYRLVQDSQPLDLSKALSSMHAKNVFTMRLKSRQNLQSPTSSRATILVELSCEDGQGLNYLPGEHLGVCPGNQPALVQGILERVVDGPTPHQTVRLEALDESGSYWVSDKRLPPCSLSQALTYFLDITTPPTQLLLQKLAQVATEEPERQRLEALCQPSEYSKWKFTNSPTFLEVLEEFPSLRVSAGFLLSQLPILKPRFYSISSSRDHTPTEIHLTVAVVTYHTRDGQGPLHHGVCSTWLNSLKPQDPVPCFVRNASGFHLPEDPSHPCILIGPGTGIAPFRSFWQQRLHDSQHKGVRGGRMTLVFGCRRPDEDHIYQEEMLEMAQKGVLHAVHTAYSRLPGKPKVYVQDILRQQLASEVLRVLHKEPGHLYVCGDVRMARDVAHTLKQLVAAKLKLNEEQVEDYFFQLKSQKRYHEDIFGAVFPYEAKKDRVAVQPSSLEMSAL

| EC50 [µM] | Compound |
| --- | --- |
| > 5 | Cc1ncsc1C(=O)N(Cc1cc(=O)[nH]c2c(F)c(F)ccc12)c1ccc(N2CCCCC2)cc1 [Example 170, N-((7,8-Difluoro-2-oxo-1,2-dihydroquinolin-4-yl)methyl)-4-methyl-N-(4-(piperidin-1-yl)phenyl)thiazole-5-carboxamide] |
| > 5 | Cc1ncsc1C(=O)N(Cc1cc2cccc(F)c2[nH]c1=O)c1cccc(Cl)c1 [Example 171, N-(3-Chlorophenyl)-N-((8-fluoro-2-oxy-1,2-dihydroquinolin-3-yl)methyl)-4-methylthiazole-5-carboxamide] |
| > 5 | Cc1ccncc1C(=O)N(Cc1cc2cccc(F)c2[nH]c1=O)c1cccc(Cl)c1 [Example 172, N-(3-Chlorophenyl)-N-((8-fluoro-2-oxo-1,2-dihydroquinolin-3-yl)methyl)-4-methylnicotinamide] |
| > 5 | Cc1oncc1C(=O)N(Cc1cc2cccc(F)c2[nH]c1=O)c1cccc(Cl)c1 [Example 173, N-(3-Chlorophenyl)-N-((8-fluoro-2-oxo-1,2-dihydroquinolin-3-yl)methyl)-5-methylisoxazole-4-carboxamide] |
| > 5 | Cc1ncsc1C(=O)N(Cc1cc2cccc(F)c2[nH]c1=O)c1ccc(N2CCCCC2)cc1 [Example 174, N-((8-Fluoro-2-oxo-1,2-dihydroquinolin-3-yl)methyl)-4-methyl-N-(piperidin-1-yl)phenylthiazole-5-carboxamide] |
| ≤ 5 | Cc1ncsc1C(=O)N(Cc1cc(=O)[nH]c2c(F)c(F)ccc12)c1ccccc1 [Example 175, N-Phenyl-N-((7,8-fluoro-2-oxo-1,2-dihydroquinolin-4-yl)methyl)-4-methylthiazole-5-carboxamide] |
| ≤ 5 | COc1ccc(N(Cc2cc(=O)[nH]c3c(F)c(F)ccc23)C(=O)c2scnc2C)cc1Cl [Example 176, N-(3-Chloro4-methoxylphenyl)-N-((7,8-fluoro-2-oxo-1,2-dihydroquinolin-4-yl)methyl)-4-methylthiazole-5-carboxamide] |
| ≤ 5 | Cc1ccc(N(Cc2cc(=O)[nH]c3c(F)c(F)ccc23)C(=O)c2scnc2C)cc1Cl [Example 177, N-(3-Chloro4-methylphenyl)-N-((7,8-fluoro-2-oxo-1,2-dihydroquinolin-4-yl)methyl)-4-methylthiazole-5-carboxamide] |
| ≤ 5 | Cc1ncsc1C(=O)N(Cc1cc(=O)[nH]c2c(F)c(F)ccc12)c1cc(F)cc(F)c1 [Example 178, N-(3,5-Difluorophenyl)-N-((7,8-fluoro-2-oxo-1,2-dihydroquinolin-4-yl)methyl)-4-methylthiazole-5-carboxamide] |
| ≤ 5 | Cc1ncsc1C(=O)N(Cc1cc(=O)[nH]c2c(F)c(F)ccc12)c1cccc2ccccc12 [Example 179, N-(1-Naphthalene)-N-((7,8-fluoro-2-oxo-1,2-dihydroquinolin-4-yl)methyl)-4-methylthiazole-5-carboxamide] |
| ≤ 5 | COc1cccc(N(Cc2cc(=O)[nH]c3c(F)c(F)ccc23)C(=O)c2scnc2C)c1 [Example 180, N-(3-Methoxylphenyl)-N-((7,8-fluoro-2-oxo-1,2-dihydroquinolin-4-yl)methyl)-4-methylthiazole-5-carboxamide] |
| ≤ 5 | Cc1ncsc1C(=O)N(Cc1cc(=O)[nH]c2c(F)c(F)ccc12)c1ccc(F)c(Cl)c1 [Example 181, N-(3-Chloro-4-fluorophenyl)-N-((7,8-fluoro-2-oxo-1,2-dihydroquinolin-4-yl)methyl)-4-methylthiazole-5-carboxamide] |
| ≤ 5 | Cc1ncsc1C(=O)N(Cc1cc(=O)[nH]c2c(F)c(F)ccc12)c1ccc(C#N)c(Cl)c1 [Example 182, N-(3-Chloro-4-cyanophenyl)-N-((7,8-fluoro-2-oxo-1,2-dihydroquinolin-4-yl)methyl)-4-methylthiazole-5-carboxamide] |
| ≤ 5 | Cc1ncsc1C(=O)N(Cc1cc(=O)[nH]c2c(F)c(F)ccc12)c1ccc(F)cc1 [Example 183, N-(4-Fluorolphenyl)-N-((7,8-fluoro-2-oxo-1,2-dihydroquinolin-4-yl)methyl)-4-methylthiazole-5-carboxamide] |
| ≤ 5 | Cc1ncsc1C(=O)N(Cc1cc(=O)[nH]c2c(F)c(F)ccc12)c1cccc(Cl)c1C [Example 184, N-(3-Chloro-2-methylphenyl)-N-((7,8-difluoro-2-oxo-1,2-dihydroquinolin-4-yl)methyl)-4-methylthiazole-5-carboxamide] |
| > 5 | Cc1ncsc1C(=O)N(Cc1cc(=O)[nH]c2c(F)c(F)ccc12)C(C)C [Example 185] |
| ≤ 5 | Cc1ncsc1C(=O)N(Cc1cc(=O)[nH]c2c(F)c(F)ccc12)c1cccc(C#N)c1 [Example 186, N-(3-Cyanophenyl)-N-((7,8-difluoro-2-oxo-1,2-dihydroquinolin-4-yl)methyl)-4-methylthiazole-5-carboxamide] |
| ≤ 5 | Cc1ncsc1C(=O)N(Cc1cc(=O)[nH]c2c(F)cccc12)c1cccc(Cl)c1F [Example 187, N-(3-Chloro-2-fluorophenyl)-N-((8-fluoro-2-oxo-1,2-dihydroquinolin-4-yl)methyl)-4-methylthiazole-5-carboxamide] |
| ≤ 5 | CC(C)S(=O)(=O)N(Cc1cc(=O)[nH]c2c(F)c(F)ccc12)c1cccc(Cl)c1 [Example 188, N-(3-Chlorophenyl)-N-((7,8-difluoro-2-oxo-1,2-dihydroquinolin-4-yl)methyl)propane-2-sulfonamide] |
| ≤ 5 | Cc1nc(C)c(S(=O)(=O)N(Cc2cc(=O)[nH]c3c(F)c(F)ccc23)c2cccc(Cl)c2)s1 [Example 189, N-(3-Chlorophenyl)-N-((7,8-difluoro-2-oxo-1,2-dihydroquinolin-4-yl)methyl)-2,4-dimethylthiazole-5-sulfonamide] |
| > 5 | Cc1nc2ccccc2n1Cc1cc(=O)[nH]c2c(F)c(F)ccc12 [Example 190, 7,8-Difluoro-4-((2-methyl-1H-benzo[d]imidazol-1-yl)methyl)quinolin-2(1H)-one] |
| ≤ 5 | O=c1cc(Cn2c(-c3cncs3)nc3ccccc32)c2ccc(F)c(F)c2[nH]1 [Example 191, 7,8-Difluoro-4-((2-(thiazol-5-yl)-1H-benzo[d]imidazol-1-yl)methyl)quinolin-2(1H)-one] |
| ≤ 5 | CSc1nc2ccccc2n1Cc1cc(=O)[nH]c2c(F)c(F)ccc12 [Example 192, 7,8-Difluoro-4-((2-(methylthio)-1H-benzo[d]imidazol-1-yl)methyl)quinolin-2(1H)-one] |
| > 5 | O=c1cc(Cn2c(-c3cscn3)nc3ccccc32)c2ccc(F)c(F)c2[nH]1 [Example 193, 7,8-Difluoro-4-((2-(thiazol-4-yl)-1H-benzo[d]imidazol-1-yl)methyl)quinolin-2(1H)-one] |
| > 5 | O=c1cc(Cn2c(CN3CCOCC3)nc3ccccc32)c2ccc(F)c(F)c2[nH]1 [Example 194, 7,8-Difluoro-4-((2-(morpholinomethyl)-1H-benzo[d]imidazol-1-yl)methyl)quinolin-2(1H)-one] |
| ≤ 5 | CC(C)Cc1nc2ccccc2n1Cc1cc(=O)[nH]c2c(F)c(F)ccc12 [Example 195, 7,8-Difluoro-4-((2-isobutyl-1H-benzo[d]imidazol-1-yl)methyl)quinolin-2(1H)-one] |
| ≤ 5 | O=c1cc(Cn2c(-c3cccc(F)c3)nc3ccccc32)c2ccc(F)c(F)c2[nH]1 [Example 196, 7,8-Difluoro-4-((2-(3-fluorophenyl)-1H-benzo[d]imidazol-1-yl)methyl)quinolin-2(1H)-one] |
